Measured values from patent publication US20240269139A1, “COMPOUNDS FOR TARGETED PROTEIN DEGRADATION OF KINASES” (DANA-FARBER CANCER INSTITUTE, INC., priority 2020, published 2024).
Where two headings read alike, the source gives them in different places.

Tests used:
[1] = molecular target: T1, protein kinases (human kinome) (Homo sapiens, UniProt O95835); assay type: cell-based; conditions: LATS1 O95835; experiment wp195
T1 sequence (O95835 1-1130): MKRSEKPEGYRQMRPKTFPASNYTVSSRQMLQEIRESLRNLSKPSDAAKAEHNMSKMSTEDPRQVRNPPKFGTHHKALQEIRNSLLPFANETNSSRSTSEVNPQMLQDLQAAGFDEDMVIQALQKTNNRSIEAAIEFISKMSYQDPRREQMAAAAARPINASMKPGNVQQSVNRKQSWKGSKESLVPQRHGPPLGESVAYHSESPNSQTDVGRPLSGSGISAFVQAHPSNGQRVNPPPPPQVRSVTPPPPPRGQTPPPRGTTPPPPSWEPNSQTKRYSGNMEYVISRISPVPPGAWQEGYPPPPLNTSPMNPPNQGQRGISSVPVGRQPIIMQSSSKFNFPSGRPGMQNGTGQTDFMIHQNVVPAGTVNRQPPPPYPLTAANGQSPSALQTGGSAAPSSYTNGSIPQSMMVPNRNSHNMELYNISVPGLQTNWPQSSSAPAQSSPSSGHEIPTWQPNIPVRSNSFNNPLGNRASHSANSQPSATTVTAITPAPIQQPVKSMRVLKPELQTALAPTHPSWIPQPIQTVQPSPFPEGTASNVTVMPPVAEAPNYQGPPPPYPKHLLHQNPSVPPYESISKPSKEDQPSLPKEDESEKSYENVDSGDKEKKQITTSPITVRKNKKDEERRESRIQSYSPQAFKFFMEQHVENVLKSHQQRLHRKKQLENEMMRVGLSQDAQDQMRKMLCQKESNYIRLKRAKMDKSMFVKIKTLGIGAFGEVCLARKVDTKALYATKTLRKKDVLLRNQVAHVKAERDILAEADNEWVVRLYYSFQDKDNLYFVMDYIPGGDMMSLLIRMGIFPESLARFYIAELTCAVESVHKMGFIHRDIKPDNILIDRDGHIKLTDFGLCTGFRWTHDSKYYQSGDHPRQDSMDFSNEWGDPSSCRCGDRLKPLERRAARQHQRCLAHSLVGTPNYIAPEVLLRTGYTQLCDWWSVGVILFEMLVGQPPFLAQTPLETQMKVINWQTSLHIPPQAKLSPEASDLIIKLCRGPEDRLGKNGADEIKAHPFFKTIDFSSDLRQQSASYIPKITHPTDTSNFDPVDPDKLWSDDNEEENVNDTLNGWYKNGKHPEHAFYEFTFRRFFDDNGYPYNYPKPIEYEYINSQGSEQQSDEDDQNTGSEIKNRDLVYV
Excerpt: (§1) Although development of targeted protein degraders requires a POI binder, among already-liganded proteins such as kinases, it was hypothesized that different targets would have a different propensity for current approaches to degrader-mediated destruction, which was termed ‘degradability’. […] It was rationalized that the probability of identifying the same kinase as a false positive in multiple treatments is low, therefore this analysis served to also assess the robustness of our data and subsequent interpretations. […] Overall, 62 protein kinases were degraded in more than 10 independent treatments, and remarkably, 9 of these (CDK4, AURKA, FER, WEE1, BLK. LIMK2, CDK6, GAK, LIMK1) were each degraded in at least 40 of the 154 independent treatments, emphasizing their predisposition to induced degradation (FIG. 1G; Appendix I).
(§2) Next, the frequency of degradation assessment was corrected for over-representation of molecules in the full dataset by omitting replicate profiling of compounds under different experimental conditions, to remove any bias. […] Unsurprisingly, the top degradable kinases mirror those from the previous analysis (CDK4, AURKA, FER, WEE1, BLK), confirming that in sufficiently large datasets, even with over-representation of certain molecules, frequency of degradation is a good measure of general tractability.

[2] = molecular target: T2, protein kinases (human kinome) (Homo sapiens, UniProt Q9UEE5); assay type: cell-based; conditions: STK17A Q9UEE5; experiment wp195
T2 sequence (Q9UEE5 1-414): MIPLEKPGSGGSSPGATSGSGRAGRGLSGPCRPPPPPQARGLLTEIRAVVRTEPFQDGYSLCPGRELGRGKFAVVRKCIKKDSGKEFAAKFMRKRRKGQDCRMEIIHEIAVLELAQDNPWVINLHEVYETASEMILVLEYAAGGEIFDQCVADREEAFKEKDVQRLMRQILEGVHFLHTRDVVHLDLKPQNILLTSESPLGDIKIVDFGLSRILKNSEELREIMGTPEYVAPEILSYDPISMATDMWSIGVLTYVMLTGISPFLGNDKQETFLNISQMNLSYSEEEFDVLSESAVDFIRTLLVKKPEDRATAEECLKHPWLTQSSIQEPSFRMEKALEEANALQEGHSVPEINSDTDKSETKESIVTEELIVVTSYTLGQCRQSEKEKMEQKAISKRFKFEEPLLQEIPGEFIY
Excerpt: as §1, §2

[3] = molecular target: T3, extended human kinome (kinase-like proteins) (Homo sapiens, UniProt Q9UHH9); experiment: Whole cell quantitative proteomics: extended kinome hits; conditions: Accession Q9UHH9; experiment wp195
T3 sequence (Q9UHH9 1-426): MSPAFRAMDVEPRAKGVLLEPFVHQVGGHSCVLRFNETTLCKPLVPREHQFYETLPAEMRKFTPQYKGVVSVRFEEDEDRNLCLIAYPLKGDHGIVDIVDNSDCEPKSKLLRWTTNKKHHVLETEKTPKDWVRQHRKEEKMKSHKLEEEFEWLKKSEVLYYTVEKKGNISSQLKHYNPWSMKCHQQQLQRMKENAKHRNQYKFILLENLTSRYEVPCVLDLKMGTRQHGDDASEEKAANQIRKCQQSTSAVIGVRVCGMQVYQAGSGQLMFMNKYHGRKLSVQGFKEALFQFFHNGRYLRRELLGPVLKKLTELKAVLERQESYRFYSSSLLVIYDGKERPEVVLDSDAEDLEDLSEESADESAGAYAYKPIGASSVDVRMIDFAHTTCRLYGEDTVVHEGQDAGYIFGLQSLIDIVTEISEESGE

[4] = molecular target: T4, protein kinases (human kinome) (Homo sapiens, UniProt Q969Z0); assay type: cell-based; conditions: Accession Q969Z0-1; experiment wp084; direction down
T4 sequence (Q969Z0 108-631): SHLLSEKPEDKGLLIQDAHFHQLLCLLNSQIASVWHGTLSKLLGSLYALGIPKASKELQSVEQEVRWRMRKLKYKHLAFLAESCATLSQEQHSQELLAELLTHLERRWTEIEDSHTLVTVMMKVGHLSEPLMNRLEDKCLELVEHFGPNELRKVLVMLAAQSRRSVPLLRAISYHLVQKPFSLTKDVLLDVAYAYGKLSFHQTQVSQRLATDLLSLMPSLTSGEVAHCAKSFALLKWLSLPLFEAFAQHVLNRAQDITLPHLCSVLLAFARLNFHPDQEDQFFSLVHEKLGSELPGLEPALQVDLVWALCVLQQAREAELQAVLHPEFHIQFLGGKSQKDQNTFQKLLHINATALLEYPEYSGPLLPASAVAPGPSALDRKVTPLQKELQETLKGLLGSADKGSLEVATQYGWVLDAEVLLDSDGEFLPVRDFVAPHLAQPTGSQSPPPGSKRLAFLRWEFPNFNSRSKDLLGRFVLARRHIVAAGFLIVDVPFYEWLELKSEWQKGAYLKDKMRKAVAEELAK
Excerpt: as §1, §2

[5] = molecular target: protein kinases (human kinome) (Homo sapiens, UniProt Q00535); assay type: cell-based; conditions: experiment wp146
protein kinases (human kinome) (Homo sapiens, UniProt Q00535), sequence (Q00535 whole entry): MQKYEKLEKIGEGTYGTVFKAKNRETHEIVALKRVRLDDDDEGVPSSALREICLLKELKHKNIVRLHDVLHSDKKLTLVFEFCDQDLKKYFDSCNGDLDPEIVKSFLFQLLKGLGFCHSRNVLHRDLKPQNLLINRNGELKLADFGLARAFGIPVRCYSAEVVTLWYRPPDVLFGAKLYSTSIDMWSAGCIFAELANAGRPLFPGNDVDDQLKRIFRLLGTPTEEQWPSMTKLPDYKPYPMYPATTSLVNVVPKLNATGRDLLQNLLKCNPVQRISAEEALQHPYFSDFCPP
Excerpt: as §1, §2

[6] = molecular target: T5, protein kinases (human kinome) (Homo sapiens, UniProt O14965); assay type: cell-based; conditions: experiment wp146
T5 sequence (O14965 1-403): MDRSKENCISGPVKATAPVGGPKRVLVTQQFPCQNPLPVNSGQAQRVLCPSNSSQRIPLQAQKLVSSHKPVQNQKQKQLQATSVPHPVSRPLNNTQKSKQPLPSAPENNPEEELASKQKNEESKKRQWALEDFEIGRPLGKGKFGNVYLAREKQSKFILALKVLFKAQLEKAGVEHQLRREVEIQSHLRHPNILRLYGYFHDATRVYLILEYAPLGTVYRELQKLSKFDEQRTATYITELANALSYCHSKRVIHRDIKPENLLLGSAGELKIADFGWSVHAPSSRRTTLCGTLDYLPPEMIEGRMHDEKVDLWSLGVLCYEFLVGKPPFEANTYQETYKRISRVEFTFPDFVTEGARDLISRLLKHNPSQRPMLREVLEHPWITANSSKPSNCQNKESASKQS
Excerpt: as §1, §2

[7] = molecular target: protein kinases (human kinome) (Homo sapiens, UniProt P24941); assay type: cell-based; conditions: experiment wp146
Excerpt: as §1, §2

[8] = molecular target: protein kinases (human kinome) (Homo sapiens, UniProt P51812); assay type: cell-based; conditions: RPS6KA3 (P51812), experiment wp146
protein kinases (human kinome) (Homo sapiens, UniProt P51812), sequence (P51812 whole entry): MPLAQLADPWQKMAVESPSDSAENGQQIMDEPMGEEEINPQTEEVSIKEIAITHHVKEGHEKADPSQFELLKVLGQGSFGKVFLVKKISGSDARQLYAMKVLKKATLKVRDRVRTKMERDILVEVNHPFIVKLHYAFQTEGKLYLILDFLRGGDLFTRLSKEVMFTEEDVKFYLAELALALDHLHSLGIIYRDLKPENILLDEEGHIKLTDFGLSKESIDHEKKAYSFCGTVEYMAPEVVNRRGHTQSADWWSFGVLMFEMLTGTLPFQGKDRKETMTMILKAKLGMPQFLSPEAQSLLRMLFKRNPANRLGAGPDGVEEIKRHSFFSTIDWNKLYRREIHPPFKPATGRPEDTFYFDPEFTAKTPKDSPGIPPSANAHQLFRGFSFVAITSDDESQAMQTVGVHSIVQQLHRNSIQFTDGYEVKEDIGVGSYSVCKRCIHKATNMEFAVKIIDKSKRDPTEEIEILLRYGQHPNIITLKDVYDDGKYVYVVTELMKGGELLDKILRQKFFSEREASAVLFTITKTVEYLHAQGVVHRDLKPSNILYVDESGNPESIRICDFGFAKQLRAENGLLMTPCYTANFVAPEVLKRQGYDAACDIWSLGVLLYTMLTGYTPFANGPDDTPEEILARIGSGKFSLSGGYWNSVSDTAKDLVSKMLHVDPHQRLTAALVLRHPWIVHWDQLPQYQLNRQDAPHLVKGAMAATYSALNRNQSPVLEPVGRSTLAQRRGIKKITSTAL
Excerpt: as §1, §2

[9] = molecular target: protein kinases (human kinome) (Homo sapiens, UniProt P45984); assay type: cell-based; conditions: MAPK9 P45984-1; experiment wp146
protein kinases (human kinome) (Homo sapiens, UniProt P45984), sequence (P45984 whole entry): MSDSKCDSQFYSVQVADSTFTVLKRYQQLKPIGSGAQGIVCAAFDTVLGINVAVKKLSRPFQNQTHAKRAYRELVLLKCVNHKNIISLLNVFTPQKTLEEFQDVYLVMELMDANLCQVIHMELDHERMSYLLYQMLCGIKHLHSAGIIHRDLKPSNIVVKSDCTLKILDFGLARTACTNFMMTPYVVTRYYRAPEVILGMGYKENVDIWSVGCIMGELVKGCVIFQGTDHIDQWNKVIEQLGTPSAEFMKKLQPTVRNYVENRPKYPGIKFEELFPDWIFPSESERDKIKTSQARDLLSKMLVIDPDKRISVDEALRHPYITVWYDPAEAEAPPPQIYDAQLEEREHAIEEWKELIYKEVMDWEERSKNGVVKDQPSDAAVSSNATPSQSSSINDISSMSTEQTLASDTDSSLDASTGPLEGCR
Excerpt: as §1, §2

[10] = molecular target: protein kinases (human kinome) (Homo sapiens, UniProt P06493); assay type: cell-based; conditions: CDK1 P06493; experiment wp146
protein kinases (human kinome) (Homo sapiens, UniProt P06493), sequence (P06493 whole entry): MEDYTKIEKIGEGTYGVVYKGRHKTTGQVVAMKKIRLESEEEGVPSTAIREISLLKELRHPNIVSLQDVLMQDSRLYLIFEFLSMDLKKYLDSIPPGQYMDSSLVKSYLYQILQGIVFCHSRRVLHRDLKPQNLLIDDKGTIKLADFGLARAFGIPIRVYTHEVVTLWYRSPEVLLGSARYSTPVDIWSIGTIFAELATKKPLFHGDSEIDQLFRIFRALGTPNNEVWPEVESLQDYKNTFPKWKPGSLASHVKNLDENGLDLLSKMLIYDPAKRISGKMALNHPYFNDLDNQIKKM
Excerpt: as §1, §2

[11] = molecular target: protein kinases (human kinome) (Homo sapiens, UniProt Q05397); assay type: cell-based; conditions: PTK2 Q05397; experiment wp146
protein kinases (human kinome) (Homo sapiens, UniProt Q05397), sequence (Q05397 whole entry): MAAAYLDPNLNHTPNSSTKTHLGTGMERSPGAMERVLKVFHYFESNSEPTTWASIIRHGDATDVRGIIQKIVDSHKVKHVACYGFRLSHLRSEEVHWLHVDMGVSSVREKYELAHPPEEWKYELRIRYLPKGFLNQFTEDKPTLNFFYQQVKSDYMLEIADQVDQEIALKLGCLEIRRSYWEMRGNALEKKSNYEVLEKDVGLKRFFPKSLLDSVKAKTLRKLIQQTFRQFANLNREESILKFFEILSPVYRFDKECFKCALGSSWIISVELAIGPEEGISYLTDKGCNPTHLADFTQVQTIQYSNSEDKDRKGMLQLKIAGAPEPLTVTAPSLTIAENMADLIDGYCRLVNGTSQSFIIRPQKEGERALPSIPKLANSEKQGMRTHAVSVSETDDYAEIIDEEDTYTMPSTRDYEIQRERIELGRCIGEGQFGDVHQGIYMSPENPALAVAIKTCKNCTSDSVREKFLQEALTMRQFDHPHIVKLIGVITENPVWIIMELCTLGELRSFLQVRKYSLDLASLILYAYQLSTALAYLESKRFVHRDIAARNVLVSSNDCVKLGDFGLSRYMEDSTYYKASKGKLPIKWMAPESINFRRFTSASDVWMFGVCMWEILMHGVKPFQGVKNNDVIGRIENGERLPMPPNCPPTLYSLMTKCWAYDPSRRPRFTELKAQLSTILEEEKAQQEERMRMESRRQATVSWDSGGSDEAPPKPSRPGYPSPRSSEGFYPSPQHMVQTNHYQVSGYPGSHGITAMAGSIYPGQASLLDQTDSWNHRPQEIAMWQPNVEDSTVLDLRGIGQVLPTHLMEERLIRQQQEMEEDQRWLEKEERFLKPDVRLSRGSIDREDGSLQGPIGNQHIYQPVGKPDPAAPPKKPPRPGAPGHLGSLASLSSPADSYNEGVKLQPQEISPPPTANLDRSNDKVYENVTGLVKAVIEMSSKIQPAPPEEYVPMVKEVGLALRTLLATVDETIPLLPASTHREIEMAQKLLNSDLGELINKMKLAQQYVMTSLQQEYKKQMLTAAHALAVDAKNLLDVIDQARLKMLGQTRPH
Excerpt: as §1, §2

[12] = molecular target: T6, protein kinases (human kinome) (Homo sapiens, UniProt P33981); assay type: cell-based; conditions: experiment wp146
T6 sequence (P33981 1-857): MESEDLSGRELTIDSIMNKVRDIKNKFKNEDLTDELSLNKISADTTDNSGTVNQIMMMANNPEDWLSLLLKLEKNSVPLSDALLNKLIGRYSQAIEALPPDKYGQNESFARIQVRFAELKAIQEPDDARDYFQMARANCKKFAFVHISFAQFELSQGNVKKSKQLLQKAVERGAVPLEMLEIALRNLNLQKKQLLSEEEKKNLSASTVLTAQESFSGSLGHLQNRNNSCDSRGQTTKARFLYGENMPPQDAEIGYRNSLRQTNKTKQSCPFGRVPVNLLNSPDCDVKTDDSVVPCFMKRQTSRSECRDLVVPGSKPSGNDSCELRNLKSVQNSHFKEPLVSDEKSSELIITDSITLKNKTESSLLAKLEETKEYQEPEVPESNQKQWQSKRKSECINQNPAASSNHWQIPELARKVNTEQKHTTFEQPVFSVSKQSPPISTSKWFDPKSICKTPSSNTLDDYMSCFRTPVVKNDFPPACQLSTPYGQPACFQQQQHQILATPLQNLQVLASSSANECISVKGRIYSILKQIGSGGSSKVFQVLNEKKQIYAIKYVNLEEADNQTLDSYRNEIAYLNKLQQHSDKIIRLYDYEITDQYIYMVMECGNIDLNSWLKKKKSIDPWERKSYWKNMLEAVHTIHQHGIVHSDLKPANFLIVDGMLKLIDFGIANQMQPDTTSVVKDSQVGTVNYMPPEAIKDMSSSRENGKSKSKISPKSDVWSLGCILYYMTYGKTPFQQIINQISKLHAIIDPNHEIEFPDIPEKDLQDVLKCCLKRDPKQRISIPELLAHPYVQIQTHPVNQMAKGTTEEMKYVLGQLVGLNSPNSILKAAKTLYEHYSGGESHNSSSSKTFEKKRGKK
Excerpt: as §1, §2

[13] = system: protein kinases (human kinome); assay type: cell-based
Excerpt: as §1, §2

[14] = molecular target: protein kinases (human kinome) (Homo sapiens, UniProt Q9BYT3); assay type: cell-based; conditions: STK33 (Q9BYT3-1), experiment wp146
protein kinases (human kinome) (Homo sapiens, UniProt Q9BYT3), sequence (Q9BYT3 whole entry): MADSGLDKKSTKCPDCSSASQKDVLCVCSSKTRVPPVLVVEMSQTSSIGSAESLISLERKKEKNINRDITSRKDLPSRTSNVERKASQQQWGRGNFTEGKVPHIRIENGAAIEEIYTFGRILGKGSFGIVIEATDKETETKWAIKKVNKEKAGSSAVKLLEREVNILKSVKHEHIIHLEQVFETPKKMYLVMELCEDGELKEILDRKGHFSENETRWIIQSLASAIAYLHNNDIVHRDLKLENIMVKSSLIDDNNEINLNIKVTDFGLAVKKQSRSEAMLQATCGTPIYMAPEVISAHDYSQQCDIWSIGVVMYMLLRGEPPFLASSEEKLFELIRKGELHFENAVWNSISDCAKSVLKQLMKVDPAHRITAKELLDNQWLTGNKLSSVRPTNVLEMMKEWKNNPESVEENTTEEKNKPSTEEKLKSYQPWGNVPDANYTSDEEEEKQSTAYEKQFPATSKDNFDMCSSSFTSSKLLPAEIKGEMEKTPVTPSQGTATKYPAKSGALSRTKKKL
Excerpt: as §1, §2

[15] = AURKB Q96GD4-5, experiment wp146

Cc1ncsc1-c1ccc([C@H](C)NC(=O)[C@@H]2C[C@@H](O)CN2C(=O)[C@@H](NC(=O)CCCCOc2ccccc2-c2ccc3nc(-c4cccnc4N)n(-c4ccc(C5(N)CCC5)cc4)c3n2)C(C)(C)C)cc1 [INY.04.125.01]
logFC [1]: −0.4176
logFC LATS1 [1]: −0.4176
logFC [2]: −0.4084
logFC STK17A [2]: −0.4084
logFC IP6K2 [3]: −0.4946

CC(=O)c1c(C)c2cnc(Nc3ccc(N4CCN(CCOCCOCCOCCNC(=O)COc5cccc6c5C(=O)N(C5CCC(=O)NC5=O)C6=O)CC4)cn3)nc2n(C2CCCC2)c1=O (centres unmarked) [BS.J.03.123]
logFC TBRG4 [4]: −0.5

Cc1cc(S(=O)(=O)NCCOCCOCCOCCOCCNc2cccc3c2C(=O)N(C2CCC(=O)NC2=O)C3=O)ccc1Nc1ncc(Br)c(Nc2cccc(F)c2C(N)=O)n1 (centres unmarked) [TMX.02.172]
logFC CDK5 (Q00535) [5]: −2.878
logFC CDK5 (Q00535) ([5]; direction of change down): −2.878
logFC AURKA (O14965) [6]: −2.402
logFC CDK2 (P24941-1) [7]: −2.199
logFC CDK2 (P24941-1) ([7]; direction of change down): −2.199
logFC [8]: −0.8349
logFC ([8]; direction down): −0.8349
logFC [9]: −1.091
logFC MAPK9 [9]: −1.091
logFC [10]: −1.302
logFC CDK1 [10]: −1.302
logFC [11]: −0.7381
logFC PTK2 [11]: −0.7381
logFC TTK ([12]; Accession P33981): −0.7542
logFC TTK (P33981) [12]: −0.7542
logFC [13, 15]: −0.4856
logFC AURKB [13, 15]: −0.4856
logFC MAPK8 (P45983-4) ([13]; Experiment wp146, direction down): −0.5524
logFC MAPK8 ([13]; MAPK8 P45983-4, experiment wp146): −0.5524
logFC RPS6KA1 ([13]; RPS6KA1 (Q15418-2), experiment wp146): −1.351
logFC RPS6KA1 (Q15418-2) ([13]; experiment wp146): −1.351
logFC [14]: −1.295
logFC ([14]; direction down): −1.295
